According to US8148403B2, “Substituted piperidyl-propane-thiols” (Boehringer Ingelheim International GmbH, priority 2006, dated 2012):

melting point: 142 °C
Compound: CCc1c(C2CCN(CCCSc3ccc(F)cc3)CC2)c2ccc(F)cc2n1-c1nc(C)ccc1O [Example 3]
